One experiment addresses Mu-type opioid receptor (Cavia porcellus, UniProt P97266). Briefly: Displacement of [3H]DAMGO from Opioid receptor mu 1 of guinea pig brain membranes.
Experiment [1] has as its target Kappa-type opioid receptor (Cavia porcellus, UniProt P41144). The experiment in a line: Displacement of [3H]U-69593 from Opioid receptor kappa 1 of guinea pig brain membranes. Background: Displacement assays read how much labelled ligand stays bound in the presence of the test substance.
Experiment [2] can be described thus: Displacement of [3H]naltrindole from Opioid receptor delta 1 of guinea pig brain membranes.

The results in this text go back to ChEMBL document CHEMBL1134211, “8-Carboxamidocyclazocine analogues: redefining the structure-activity relationships of 2,6-methano-3-benzazocines” (Bioorg Med Chem Lett, 2001).

Chain of Kappa-type opioid receptor (P41144 whole entry): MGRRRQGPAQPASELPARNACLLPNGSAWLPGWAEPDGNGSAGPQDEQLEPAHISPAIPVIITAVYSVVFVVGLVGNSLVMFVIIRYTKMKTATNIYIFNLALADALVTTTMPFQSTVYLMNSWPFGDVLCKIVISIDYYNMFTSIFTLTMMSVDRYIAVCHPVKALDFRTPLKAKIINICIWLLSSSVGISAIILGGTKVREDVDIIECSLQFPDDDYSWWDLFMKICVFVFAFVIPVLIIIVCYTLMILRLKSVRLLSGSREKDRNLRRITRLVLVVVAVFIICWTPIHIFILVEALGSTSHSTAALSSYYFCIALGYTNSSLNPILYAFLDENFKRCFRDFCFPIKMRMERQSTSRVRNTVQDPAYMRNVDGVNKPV
Chain of Mu-type opioid receptor (P97266 whole entry): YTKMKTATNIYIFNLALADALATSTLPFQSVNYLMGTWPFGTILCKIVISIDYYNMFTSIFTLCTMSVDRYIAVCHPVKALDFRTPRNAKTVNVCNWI

For `C[C@H]1C2Cc3ccc(C#N)cc3[C@@]1(C)CCN2CC1CC1` (mixture of isomers), at Mu-type opioid receptor, the Ki came to 0.54 µM.
Consider `COC(=O)c1ccc2c(c1)[C@@]1(C)CCN(CC3CC3)C(C2)[C@@H]1C` (mixture of isomers), for which the Ki at Mu-type opioid receptor is 0.045 µM.
As to `C[C@H]1C2Cc3ccc(C(=O)N(C)C)cc3[C@@]1(C)CCN2CC1CC1` (mixture of isomers), the Ki on Mu-type opioid receptor was determined as 3 µM; in experiment [1] it was 2.5 µM.
For `C[C@H]1C2Cc3ccc(C(=O)Nc4ccccc4)cc3[C@@]1(C)CCN2CC1CC1` (mixture of isomers), the Ki on Mu-type opioid receptor came out at 0.74 µM; in experiment [1], 0.46 µM.
In turn, `C[C@@H]1[C@@H]2Cc3ccc(O)cc3[C@@]1(C)CN2CC1CC1` yielded a Ki in experiment [2] of 1.1 µM.
As for `CNC(=O)c1ccc2c(c1)[C@@]1(C)CCN(CC3CC3)C(C2)[C@@H]1C` (mixture of isomers), the Ki was 0.024 µM on Mu-type opioid receptor and 0.0026 µM in experiment [1].
For `C[C@H]1[C@H]2Cc3ccc(O)cc3[C@@]1(C)CCN2CC1CC1` (racemic), in experiment [2], the Ki came to 0.0011 µM.
Turning to `CC[C@@]12CCN(CC3CC3)C(C(=O)c3ccc(C(N)=O)cc31)[C@@H]2C` (mixture of isomers), the Ki at Mu-type opioid receptor is 0.0012 µM; in experiment [1], 0.0007 µM.
Take `C[C@H]1C2Cc3ccc(C(=O)O)cc3[C@@]1(C)CCN2CC1CC1` (mixture of isomers): the Ki at Mu-type opioid receptor was found to be 0.058 µM; in experiment [1], 0.031 µM.

The term Ki denotes a measure of affinity in units of concentration, obtained from inhibition or displacement. The low end stands for tighter binding, the high end for weaker binding.
